The CheMixHub viscosity set

Assay: xn = mol fraction of the nth substance listed

C=Cc1ccccc1 + CCCCCCCC
Conditions	viscosity [mPa·s]
293.15 K, 101 kPa, x1 = 0.622	0.585
298.15 K, 101 kPa, x1 = 0.622	0.55
298.15 K, 101.33 kPa, x1 = 0.1009	0.512
298.15 K, 101.33 kPa, x1 = 0.1995	0.514
298.15 K, 101.33 kPa, x1 = 0.331	0.516
298.15 K, 101.33 kPa, x1 = 0.3985	0.522
298.15 K, 101.33 kPa, x1 = 0.4971	0.535
298.15 K, 101.33 kPa, x1 = 0.5989	0.558
298.15 K, 101.33 kPa, x1 = 0.7005	0.587
298.15 K, 101.33 kPa, x1 = 0.8009	0.616
298.15 K, 101.33 kPa, x1 = 0.8988	0.657
303.15 K, 101 kPa, x1 = 0.622	0.52
303.15 K, 101.33 kPa, x1 = 0.1009	0.481
303.15 K, 101.33 kPa, x1 = 0.1995	0.485
303.15 K, 101.33 kPa, x1 = 0.331	0.488
303.15 K, 101.33 kPa, x1 = 0.3985	0.495
303.15 K, 101.33 kPa, x1 = 0.4971	0.5
303.15 K, 101.33 kPa, x1 = 0.5989	0.524
303.15 K, 101.33 kPa, x1 = 0.7005	0.552
303.15 K, 101.33 kPa, x1 = 0.8009	0.575
303.15 K, 101.33 kPa, x1 = 0.8988	0.617
308.15 K, 101.33 kPa, x1 = 0.1009	0.461
308.15 K, 101.33 kPa, x1 = 0.1995	0.462
308.15 K, 101.33 kPa, x1 = 0.331	0.464
308.15 K, 101.33 kPa, x1 = 0.3985	0.467
308.15 K, 101.33 kPa, x1 = 0.4971	0.476
308.15 K, 101.33 kPa, x1 = 0.5989	0.495
308.15 K, 101.33 kPa, x1 = 0.7005	0.521
308.15 K, 101.33 kPa, x1 = 0.8009	0.55
308.15 K, 101.33 kPa, x1 = 0.8988	0.581
313.15 K, 101 kPa, x1 = 0.3202	0.43
313.15 K, 101 kPa, x1 = 0.622	0.465
323.15 K, 101 kPa, x1 = 0.622	0.418
323.15 K, 101 kPa, x1 = 0.8145	0.462
323.15 K, 101 kPa, x1 = 0.9081	0.479

CCCCCCCCO + CCCCCCCC
298.15 K, 101.33 kPa
Conditions	viscosity [mPa·s]
x1 = 0.0015	0.491
x2 = 0.0566	6.369
x2 = 0.1294	5.058
x2 = 0.2321	3.637
x2 = 0.353	2.469
x2 = 0.4724	1.705
x2 = 0.527	1.452
x2 = 0.6297	1.094
x2 = 0.778	0.764
x2 = 0.8294	0.683
x2 = 0.9163	0.572

C=Cc1ccccc1 + CCCCCCCCC
viscosity [mPa·s], 101.33 kPa
Conditions	x1 = 0.0999	x1 = 0.2002	x1 = 0.2986	x1 = 0.3964	x1 = 0.4953	x1 = 0.5967	x1 = 0.6984	x1 = 0.7933	x1 = 0.8971
298.15 K	0.638	0.626	0.618	0.613	0.614	0.616	0.628	0.642	0.669
303.15 K	0.606	0.588	0.582	0.577	0.579	0.581	0.593	0.606	0.628
308.15 K	0.564	0.551	0.547	0.544	0.544	0.547	0.558	0.57	0.591

CC12CC3CC(C1)CC(C)(C3)C2 + CCCCCCCCC
viscosity [mPa·s], 100 kPa
Conditions	x1 = 0.1004	x1 = 0.2014	x1 = 0.3	x1 = 0.4003	x1 = 0.5004	x1 = 0.6001	x1 = 0.7005	x1 = 0.7994	x1 = 0.8997
293.15 K	0.802	0.912	1.033	1.203	1.39	1.647	1.986	2.44	2.984
298.15 K	0.748	0.848	0.958	1.111	1.279	1.501	1.8	2.183	2.68
303.15 K	0.699	0.791	0.891	1.028	1.182	1.377	1.635	1.992	2.419
308.15 K	0.656	0.74	0.831	0.956	1.093	1.267	1.509	1.816	2.196
313.15 K	0.617	0.694	0.777	0.891	1.018	1.18	1.399	1.661	2
318.15 K	0.582	0.652	0.728	0.833	0.947	1.09	1.282	1.527	1.829
323.15 K	0.55	0.615	0.685	0.78	0.885	1.018	1.193	1.411	1.68

C=Cc1ccccc1 + CCCCCCCCCC
viscosity [mPa·s], 101.33 kPa
Conditions	x1 = 0.1007	x1 = 0.2052	x1 = 0.2991	x1 = 0.4114	x1 = 0.4959	x1 = 0.6135	x1 = 0.6992	x1 = 0.8062	x1 = 0.8984
298.15 K	0.803	0.773	0.75	0.724	0.706	0.688	0.68	0.677	0.693
303.15 K	0.749	0.722	0.702	0.678	0.663	0.646	0.638	0.633	0.644
308.15 K	0.7	0.678	0.658	0.638	0.624	0.607	0.602	0.6	0.611

CC12CC3CC(C1)CC(C)(C3)C2 + CCCCCCCCCC
viscosity [mPa·s], 100 kPa
Conditions	x1 = 0.1028	x1 = 0.1981	x1 = 0.3019	x1 = 0.3998	x1 = 0.4996	x1 = 0.6018	x1 = 0.6968	x1 = 0.7904	x1 = 0.895
293.15 K	1.016	1.12	1.253	1.402	1.581	1.828	2.125	2.491	3.031
298.15 K	0.942	1.035	1.154	1.287	1.445	1.665	1.926	2.247	2.719
303.15 K	0.877	0.961	1.069	1.187	1.328	1.526	1.757	2.04	2.456
313.15 K	0.767	0.837	0.926	1.023	1.137	1.295	1.48	1.704	2.032
323.15 K	0.672	0.729	0.797	0.879	0.972	1.098	1.237	1.421	1.676
